Laboratory results as given in US10670605B2, “Cysteine reactive probes and uses thereof” (The Scripps Research Institute, priority 2015, dated 2020).

Key:
[1] = target: cysteines in MDA-MB-231 and Ramos cells (Homo sapiens, UniProt Q8N999); test: Competitive isoTOP-ABPP in situ (fragment-treated cells); format: cell-based; conditions: 200 μM, insitu, 231
[2] = target: cysteines in MDA-MB-231 and Ramos cells (Homo sapiens, UniProt P46013); test: as above; format: cell-based; conditions: 200 μM, insitu
Chain of cysteines in MDA-MB-231 and Ramos cells (Homo sapiens, UniProt P46013) (P46013 whole entry): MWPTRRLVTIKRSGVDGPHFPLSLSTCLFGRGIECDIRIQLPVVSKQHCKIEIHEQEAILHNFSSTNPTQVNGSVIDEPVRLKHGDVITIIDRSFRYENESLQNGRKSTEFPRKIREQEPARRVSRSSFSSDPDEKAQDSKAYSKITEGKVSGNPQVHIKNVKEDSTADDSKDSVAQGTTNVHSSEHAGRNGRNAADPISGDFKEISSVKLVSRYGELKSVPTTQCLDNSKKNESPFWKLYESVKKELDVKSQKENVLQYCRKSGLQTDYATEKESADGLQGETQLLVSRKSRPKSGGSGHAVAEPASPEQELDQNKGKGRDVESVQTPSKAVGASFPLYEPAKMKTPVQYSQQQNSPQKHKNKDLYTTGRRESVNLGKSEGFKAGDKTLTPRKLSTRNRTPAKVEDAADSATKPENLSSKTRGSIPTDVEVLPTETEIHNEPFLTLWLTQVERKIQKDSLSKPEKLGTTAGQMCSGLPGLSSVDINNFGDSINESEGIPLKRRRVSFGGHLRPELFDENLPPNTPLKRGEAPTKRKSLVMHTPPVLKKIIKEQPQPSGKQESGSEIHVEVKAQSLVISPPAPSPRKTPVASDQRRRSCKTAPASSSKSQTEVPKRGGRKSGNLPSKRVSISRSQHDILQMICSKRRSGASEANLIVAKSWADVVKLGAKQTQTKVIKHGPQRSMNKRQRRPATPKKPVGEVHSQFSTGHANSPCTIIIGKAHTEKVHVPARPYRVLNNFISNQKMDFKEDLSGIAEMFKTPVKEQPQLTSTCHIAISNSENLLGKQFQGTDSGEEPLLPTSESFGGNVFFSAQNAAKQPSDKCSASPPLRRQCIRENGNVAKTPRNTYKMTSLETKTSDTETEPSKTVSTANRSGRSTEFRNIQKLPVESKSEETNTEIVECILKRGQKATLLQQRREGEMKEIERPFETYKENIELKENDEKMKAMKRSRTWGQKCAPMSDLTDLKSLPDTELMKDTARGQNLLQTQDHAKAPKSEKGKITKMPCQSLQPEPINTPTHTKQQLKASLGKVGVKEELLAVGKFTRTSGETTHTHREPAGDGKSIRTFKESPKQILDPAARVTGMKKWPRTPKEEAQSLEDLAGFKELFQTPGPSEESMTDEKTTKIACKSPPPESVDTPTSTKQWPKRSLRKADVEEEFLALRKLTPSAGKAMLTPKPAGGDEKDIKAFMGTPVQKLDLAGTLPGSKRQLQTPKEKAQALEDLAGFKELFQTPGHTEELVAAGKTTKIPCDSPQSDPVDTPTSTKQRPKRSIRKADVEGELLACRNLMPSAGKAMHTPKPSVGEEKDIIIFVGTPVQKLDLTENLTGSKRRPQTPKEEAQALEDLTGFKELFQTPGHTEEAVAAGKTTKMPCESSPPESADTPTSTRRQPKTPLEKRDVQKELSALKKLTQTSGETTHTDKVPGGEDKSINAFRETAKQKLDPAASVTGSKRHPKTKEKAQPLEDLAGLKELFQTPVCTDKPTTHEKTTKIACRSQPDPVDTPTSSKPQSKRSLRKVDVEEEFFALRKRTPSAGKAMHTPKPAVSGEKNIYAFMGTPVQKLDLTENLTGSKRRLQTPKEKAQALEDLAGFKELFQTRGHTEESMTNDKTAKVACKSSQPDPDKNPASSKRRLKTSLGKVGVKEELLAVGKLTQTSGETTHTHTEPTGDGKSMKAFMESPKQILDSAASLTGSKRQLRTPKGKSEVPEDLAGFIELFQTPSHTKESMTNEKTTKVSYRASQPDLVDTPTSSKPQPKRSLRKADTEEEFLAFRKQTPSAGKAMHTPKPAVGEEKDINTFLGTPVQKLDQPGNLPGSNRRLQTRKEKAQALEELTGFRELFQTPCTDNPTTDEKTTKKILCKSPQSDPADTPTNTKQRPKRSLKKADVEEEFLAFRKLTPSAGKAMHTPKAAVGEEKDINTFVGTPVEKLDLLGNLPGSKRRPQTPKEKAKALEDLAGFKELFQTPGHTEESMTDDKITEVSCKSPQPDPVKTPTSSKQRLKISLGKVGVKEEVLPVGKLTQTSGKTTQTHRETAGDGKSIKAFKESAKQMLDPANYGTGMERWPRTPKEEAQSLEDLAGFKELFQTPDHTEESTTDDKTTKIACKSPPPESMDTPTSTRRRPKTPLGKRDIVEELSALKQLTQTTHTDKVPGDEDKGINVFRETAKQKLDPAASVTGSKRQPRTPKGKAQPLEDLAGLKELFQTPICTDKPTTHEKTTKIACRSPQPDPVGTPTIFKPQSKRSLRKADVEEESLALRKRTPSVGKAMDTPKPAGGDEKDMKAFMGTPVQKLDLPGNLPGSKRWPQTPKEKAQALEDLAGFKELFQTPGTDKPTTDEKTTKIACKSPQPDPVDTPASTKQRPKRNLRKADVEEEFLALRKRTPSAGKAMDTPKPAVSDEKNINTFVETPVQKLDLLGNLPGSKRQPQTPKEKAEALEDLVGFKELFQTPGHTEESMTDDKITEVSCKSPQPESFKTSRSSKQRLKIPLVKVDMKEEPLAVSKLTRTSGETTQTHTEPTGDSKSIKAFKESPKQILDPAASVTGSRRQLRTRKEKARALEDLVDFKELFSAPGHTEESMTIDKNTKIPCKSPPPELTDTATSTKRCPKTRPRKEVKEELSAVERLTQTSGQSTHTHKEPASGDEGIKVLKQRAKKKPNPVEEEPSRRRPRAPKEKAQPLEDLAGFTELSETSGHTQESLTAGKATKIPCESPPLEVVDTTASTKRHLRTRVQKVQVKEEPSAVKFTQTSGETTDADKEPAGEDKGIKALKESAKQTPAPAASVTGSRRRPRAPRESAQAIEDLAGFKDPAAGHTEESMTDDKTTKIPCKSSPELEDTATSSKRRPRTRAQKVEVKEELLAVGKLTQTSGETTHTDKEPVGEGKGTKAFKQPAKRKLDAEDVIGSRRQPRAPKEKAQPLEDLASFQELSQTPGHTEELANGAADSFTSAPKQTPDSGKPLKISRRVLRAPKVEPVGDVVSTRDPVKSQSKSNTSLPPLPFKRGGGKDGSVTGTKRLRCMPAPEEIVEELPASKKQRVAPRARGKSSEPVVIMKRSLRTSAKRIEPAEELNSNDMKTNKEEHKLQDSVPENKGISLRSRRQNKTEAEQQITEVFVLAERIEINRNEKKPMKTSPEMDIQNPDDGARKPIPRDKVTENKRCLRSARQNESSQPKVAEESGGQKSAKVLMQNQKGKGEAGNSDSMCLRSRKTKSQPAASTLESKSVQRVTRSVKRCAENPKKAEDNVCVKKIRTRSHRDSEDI

[3] = target: O14933 C98 (Homo sapiens, UniProt O14933); test: Competitive isoTOP-ABPP, cell lysates; format: binding; conditions: 500 μM, invitro, ramos
Chain of O14933 C98 (O14933 whole entry): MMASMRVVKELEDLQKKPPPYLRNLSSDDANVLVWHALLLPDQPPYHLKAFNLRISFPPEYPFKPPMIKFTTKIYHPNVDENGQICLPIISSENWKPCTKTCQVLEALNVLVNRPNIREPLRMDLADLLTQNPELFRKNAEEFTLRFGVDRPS

[4] = target: T1, USP22 C44 (Q9UPT9) (Homo sapiens, UniProt Q9UPT9); test: Competitive isoTOP-ABPP, cell lysates; format: binding
T1 sequence (Q9UPT9 1-525): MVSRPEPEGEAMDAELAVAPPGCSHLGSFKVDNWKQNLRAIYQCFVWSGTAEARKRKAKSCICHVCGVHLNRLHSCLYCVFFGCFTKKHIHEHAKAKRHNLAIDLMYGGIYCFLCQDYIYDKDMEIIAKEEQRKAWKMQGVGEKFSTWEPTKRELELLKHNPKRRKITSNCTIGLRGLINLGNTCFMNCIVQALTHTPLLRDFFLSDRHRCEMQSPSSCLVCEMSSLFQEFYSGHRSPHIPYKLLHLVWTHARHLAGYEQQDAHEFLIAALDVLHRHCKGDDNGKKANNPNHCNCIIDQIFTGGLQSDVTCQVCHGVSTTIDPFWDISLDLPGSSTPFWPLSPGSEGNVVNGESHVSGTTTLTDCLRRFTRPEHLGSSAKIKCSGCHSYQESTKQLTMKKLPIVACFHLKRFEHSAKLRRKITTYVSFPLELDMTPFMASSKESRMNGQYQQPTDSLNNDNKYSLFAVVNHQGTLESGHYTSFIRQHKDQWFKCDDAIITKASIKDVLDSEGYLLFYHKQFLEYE

[5] = target: T2, cysteines in MDA-MB-231 and Ramos cells (Homo sapiens, UniProt Q8IYQ7); test: Competitive isoTOP-ABPP in situ (fragment-treated cells); format: cell-based; conditions: 200 μM, insitu, 231
T2 sequence (Q8IYQ7 1-743): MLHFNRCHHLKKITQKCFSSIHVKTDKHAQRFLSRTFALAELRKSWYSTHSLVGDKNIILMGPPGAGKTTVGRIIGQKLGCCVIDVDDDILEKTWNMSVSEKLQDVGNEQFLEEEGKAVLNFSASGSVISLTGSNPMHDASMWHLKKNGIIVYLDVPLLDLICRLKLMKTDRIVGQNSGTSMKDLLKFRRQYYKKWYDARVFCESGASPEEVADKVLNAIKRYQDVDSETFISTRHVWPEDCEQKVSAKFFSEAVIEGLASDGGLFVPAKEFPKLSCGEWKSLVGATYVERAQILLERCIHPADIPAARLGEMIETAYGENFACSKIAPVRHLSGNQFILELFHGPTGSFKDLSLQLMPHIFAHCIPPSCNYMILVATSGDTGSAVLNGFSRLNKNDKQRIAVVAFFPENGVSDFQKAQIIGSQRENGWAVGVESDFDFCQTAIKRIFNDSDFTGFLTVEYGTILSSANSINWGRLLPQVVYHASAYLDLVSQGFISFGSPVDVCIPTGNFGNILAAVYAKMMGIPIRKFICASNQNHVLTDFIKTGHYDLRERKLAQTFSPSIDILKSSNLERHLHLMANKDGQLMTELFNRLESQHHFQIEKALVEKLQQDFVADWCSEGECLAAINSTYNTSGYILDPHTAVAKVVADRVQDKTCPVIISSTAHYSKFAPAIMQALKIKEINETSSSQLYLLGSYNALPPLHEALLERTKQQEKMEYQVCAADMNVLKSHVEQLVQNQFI

[6] = target: PES1 C272 (O00541) (Homo sapiens, UniProt O00541); test: Competitive isoTOP-ABPP, cell lysates; format: binding; conditions: 500 μM, invitro
Chain of PES1 C272 (O00541) (O00541 whole entry, looked up, the tested form may be a part): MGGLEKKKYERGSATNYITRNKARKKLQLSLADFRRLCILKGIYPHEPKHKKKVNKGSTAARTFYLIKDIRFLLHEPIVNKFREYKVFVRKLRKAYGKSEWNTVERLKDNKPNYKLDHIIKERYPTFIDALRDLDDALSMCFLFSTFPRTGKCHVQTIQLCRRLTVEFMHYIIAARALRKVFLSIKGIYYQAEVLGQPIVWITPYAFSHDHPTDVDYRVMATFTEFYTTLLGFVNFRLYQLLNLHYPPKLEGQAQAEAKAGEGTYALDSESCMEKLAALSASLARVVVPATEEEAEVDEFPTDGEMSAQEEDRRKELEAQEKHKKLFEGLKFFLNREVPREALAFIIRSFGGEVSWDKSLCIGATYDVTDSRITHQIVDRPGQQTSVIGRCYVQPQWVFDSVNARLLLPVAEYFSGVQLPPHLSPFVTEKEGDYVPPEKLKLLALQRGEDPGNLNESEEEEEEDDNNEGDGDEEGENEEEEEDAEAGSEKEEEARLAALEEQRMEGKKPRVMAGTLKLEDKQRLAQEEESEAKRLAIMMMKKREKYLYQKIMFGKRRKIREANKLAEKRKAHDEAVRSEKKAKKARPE

[7] = target: cysteines in MDA-MB-231 and Ramos cells (Homo sapiens, UniProt Q8IU81); test: Competitive isoTOP-ABPP in situ (fragment-treated cells); format: cell-based; conditions: 200 μM, insitu, 231
Chain of cysteines in MDA-MB-231 and Ramos cells (Homo sapiens, UniProt Q8IU81) (Q8IU81 whole entry, the tested form may be a part): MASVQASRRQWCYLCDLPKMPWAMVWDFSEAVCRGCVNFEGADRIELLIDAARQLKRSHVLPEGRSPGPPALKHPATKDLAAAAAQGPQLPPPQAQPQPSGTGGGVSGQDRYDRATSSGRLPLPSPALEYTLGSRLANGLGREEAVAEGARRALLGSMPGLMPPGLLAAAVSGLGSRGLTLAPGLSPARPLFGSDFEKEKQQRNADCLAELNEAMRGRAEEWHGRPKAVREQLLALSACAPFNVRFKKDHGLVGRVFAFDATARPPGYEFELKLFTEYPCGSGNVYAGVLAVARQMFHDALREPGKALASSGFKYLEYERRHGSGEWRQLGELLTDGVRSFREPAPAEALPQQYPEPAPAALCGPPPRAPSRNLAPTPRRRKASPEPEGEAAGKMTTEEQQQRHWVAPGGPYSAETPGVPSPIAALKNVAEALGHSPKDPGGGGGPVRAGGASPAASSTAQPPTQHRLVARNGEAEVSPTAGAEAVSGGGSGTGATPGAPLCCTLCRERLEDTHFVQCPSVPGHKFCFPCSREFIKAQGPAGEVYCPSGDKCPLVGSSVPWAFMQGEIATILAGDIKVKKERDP

Chain of cysteines in MDA-MB-231 and Ramos cells (Homo sapiens, UniProt Q8N999) (Q8N999 whole entry, the tested form may be a part): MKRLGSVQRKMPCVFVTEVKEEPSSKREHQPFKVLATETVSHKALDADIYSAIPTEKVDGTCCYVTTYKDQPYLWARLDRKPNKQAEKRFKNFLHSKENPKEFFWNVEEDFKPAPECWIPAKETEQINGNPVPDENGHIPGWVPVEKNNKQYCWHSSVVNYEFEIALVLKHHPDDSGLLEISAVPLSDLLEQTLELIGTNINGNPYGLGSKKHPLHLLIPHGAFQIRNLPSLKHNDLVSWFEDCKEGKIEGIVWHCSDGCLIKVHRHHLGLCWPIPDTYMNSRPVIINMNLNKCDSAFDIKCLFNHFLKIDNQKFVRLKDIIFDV

SMILES: COc1ccccc1OCCNC(=O)CCl [compound 28]
- isoTOP-ABPP ratio Q8N999_C302 [1]: 0.6

SMILES: Cc1ccc(C=C(C#N)C(=O)NCCN2CCOCC2)cc1 [compound 41]
- isoTOP-ABPP ratio Q8N999_C302 [1]: 0.3
- isoTOP-ABPP ratio P46013_C903 [2]; 231: 1.0

SMILES: O=C(CCl)NC(=O)NC12CC3CC(CC(C3)C1)C2 [compound 12]
- isoTOP-ABPP ratio O14933_C98 [3]: 1.3

SMILES: COc1cc(NC(=O)CCl)cc(OC)c1 [compound 43]
- isoTOP-ABPP reactivity profile ratio, Q9UPT9_C44 ([4]; 500 μm, in-vitro_ramos): 2.1

SMILES: O=C(CCl)NCCc1c[nH]c2ccccc12 [compound 13]
- isoTOP-ABPP ratio, cysteine Q8IYQ7_C324 [5]: 1.3
- isoTOP-ABPP ratio O14933_C98 [3]: 1.0
- isoTOP-ABPP ratio, O00541_C272 [6]; 231: 1.7

SMILES: O=C(CCl)N1CCC(Cc2ccccc2)CC1 [compound 9]
- isoTOP-ABPP reactivity Q8IYQ7_C324 THNSL1 [5]: 1.6

SMILES: O=C(CCl)NC12CC3CC(CC(C3)C1)C2 [compound 21]
- isoTOP-ABPP ratio, cysteine Q8IYQ7_C324 [5]: 2.0

SMILES: O=C(CCl)Nc1cccc2ncccc12 [compound 51]
- isoTOP-ABPP ratio P46013_C903 [2]; 231: 1.1

SMILES: Cn1cc(S(=O)(=O)N2CCOCC2)cc1C(=O)NC(=O)CCl [compound 11]
- isoTOP-ABPP ratio O14933_C98 [3]: 3.4
- isoTOP-ABPP ratio, O00541_C272 ([6]; ramos): 4.2

SMILES: C=CC(=O)Nc1cc(F)c(N2CCN(C(=O)OC(C)(C)C)CC2)c(F)c1 [compound 38]
- isoTOP-ABPP ratio Q8IU81_C363 [7]: 1.3
- isoTOP-ABPP ratio P46013_C903 [2]; 231: 1.1

SMILES: C=CC(=O)N(c1ccccc1)c1ccc(Br)cc1 [compound 5]
- isoTOP-ABPP ratio, O00541_C272 ([6]; ramos): 12.3
- isoTOP-ABPP ratio, Q9UPT9_C44 ([4]; 500 μM, invitro, ramos): 20.0

SMILES: CC1CCc2ccccc2N1C(=O)CCl (centres unmarked) [compound 45]
- isoTOP-ABPP ratio Q8N999_C302 [1]: 20.0
- isoTOP-ABPP ratio Q8IU81_C363 [7]: 1.7
- isoTOP-ABPP ratio P46013_C903 [2]; 231: 20.0

SMILES: CCN(CC)c1ccc(S(N)(=O)=O)cc1NC(=O)CCl [compound 30]
- isoTOP-ABPP reactivity ratio, Q9UPT9_C44 ([4]; 500 μm, in-vitro_ramos): 1.7

SMILES: COc1cc2c(cc1OC)CN(C(=O)CCl)CC2 [compound 8]
- isoTOP-ABPP reactivity Q8IYQ7_C324 THNSL1 [5]: 20.0

SMILES: CC(C)CCOCCNC(=O)CCl [compound 27]
- isoTOP-ABPP ratio (reactivity profile), Q9UPT9_C44 ([4]; 500 μm in-vitro ramos): 1.2
- isoTOP-ABPP ratio (reactivity profile), Q9UPT9_C44 ([4]; 500 μm in-vitro ramos_231): 20.0

SMILES: O=C(CCl)N1CCN(S(=O)(=O)c2ccccc2F)CC1 [compound 10]
- isoTOP-ABPP ratio, cysteine Q8IU81_C363 [7]: 5.9
- isoTOP-ABPP ratio, cysteine Q8IYQ7_C324 [5]: 5.3
- isoTOP-ABPP ratio, O00541_C272 ([6]; ramos): 2.2

SMILES: O=C(CCl)N1CCN(CC(=O)N2CCOCC2)CC1 [compound 29]
- isoTOP-ABPP ratio P46013_C903 ([2]; ramos): 1.6

SMILES: C=CC(=O)N(Cc1cccnc1)c1cc(C(F)(F)F)cc(C(F)(F)F)c1 [compound 31]
- isoTOP-ABPP ratio Q8IU81_C363 [7]: 0.7
